Consider one compound from patent US20120142730A1 (priority 2010, published 2012).

The assay has as its system subjects with relapsing remitting multiple sclerosis (RRMS). In words: ALLEGRO phase III trial: disability endpoints (EDSS, MSFC). It counts as in vivo, human. The conditions noted are these: for Patients with confirmed (3 months) EDSS progression: after 24 months. The method, then: Eligible subjects were equally randomized 1:1 into one of the following treatment arms: • 1. […] 21, 2007 (see, page 10, line 5 to page 11, line 3). • 2. Matching placebo for laquinimod arm: one capsule is administered once daily. Secondary endpoints were disability progression as measured by the EDSS and the Multiple Sclerosis Functional Composite (MSFC). Confirmed disability progression was defined as an increase of ≧1.0 EDSS point from baseline if baseline EDSS was between 0 and 5.0, or an increase of ≧0.5 point if baseline EDSS was ≧5.5. In order to confirm EDSS progression, these increases had to be sustained for at least three months. Additional predefined disability endpoints include the proportion of patients without confirmed disability progression at 24 months; confirmed disability progression (defined as change in EDSS scores≧1.0 points for baseline EDSS 0 to 5.0 or ≧5.5) sustained for six months; the accumulation of physical disability as measured by mean EDSS and the mean change in EDSS from baseline to last observed value (LOV). For the MSFC, the measure was the total MSFC z score at 24 months (including patients who terminated after 12 months). The 9-hole peg test (9HPT) and the Paced Auditory Serial Addition Test (PASAT) were performed three times at screening to reduce confounding training effects during the trial. The analysis of the accumulation of physical disability is based on Cox's Proportional Hazard model. The analysis of MSFC is based on baseline-adjusted Analysis of Covariance. The analysis of the secondary MRI endpoints is based on baseline-adjusted Negative Binomial Regression. To control against type-I error, the secondary endpoints were analyzed only after a significant effect was found for the primary endpoint. Likewise, the study's overall type-I error was further controlled in the analysis of the secondary endpoints by applying the following gate-keeping approach: both the cumulative number of new/enlarging T2 and the cumulative number of GdE lesions at months 12 and 24 were tested simultaneously and needed to be statistically significant at p<0.05, or one needed to be significant at p<0.025 if the other endpoint was not statistically significant at the 5% level. If the above condition was met, the study then proceeded to the analysis of the confirmed EDSS progression endpoint, if this endpoint was significant at 5% level, the analysis was done for the total MSFC z-scores. The analysis of risk to confirmed disability progression using the ITT cohort was based on Cox's Proportional Hazard model adjusted to baseline EDSS, log of the prior 2 year number of relapses +1 and geographical region. The MSFC at month 24 was analyzed using a baseline-adjusted ANCOVA (SAS@PROC GLM) with baseline MSFC as 1 degree of freedom covariate and baseline EDSS score, log of the 2-year prior relapse rate +1 and country or geographical region as additional covariates.

Setting [1] is: 0.6 mg daily oral, listed as laquinimod.

As to `CCN(C(=O)c1c(O)c2c(Cl)cccc2n(C)c1=O)c1ccccc1` [Laquinimod, laquinimod], for the setting “0.6 mg daily oral”, the “Median EDSS score at LOV” value turned out to be 2.5 and the “Patients with confirmed (3 months) EDSS progression” value is reported as 9.8% progressed. Besides, where the note is “0.6 mg daily oral vs placebo”, the “Decrease in the risk for 6 month confirmed EDSS progression” value is 48%, the “Reduction in risk of confirmed progression requiring persistence of EDSS change at the last available visit” value worked out at 35% and the “Time to confirmed (3 Ms) progression EDSS: reduction of risk to progress” value was 36% reduction of risk. Also, the “Adjusted mean total MSFC z score at 24 months, difference from placebo” value (0.6 mg daily oral vs placebo, p=0.5893) was “no significant differences”. Further, the “Time to confirmed (3 Ms) progression EDSS: reduction of risk to progress” value (0.6 mg daily oral vs placebo, listed as laquinimod) turned out to be 36%. Under setting [1], the “Patients with confirmed (3 months) EDSS progression” value is recorded as 9.8% and the “MSFC total z score at 24 months (including early terminations after 12 months), mean” value is listed as 0.056. In addition, the “Mean EDSS score at LOV” value (0.6 mg daily oral, baseline adjusted ANCOVA) is 2.68. In addition, for the setting “0.6 mg daily oral, n = 550”, the “Patients with no confirmed disability progression at LOV” value was “(90.2%)” and the “Patients with no confirmed disability progression at LOV, number” value worked out at 496. Further, under “post-hoc subgroup analysis, 33/54 patients”, the “Patients who progressed and also had a relapse during the study” value is listed as 61.1%.
